The conditions of series [1]: known logP of standards; cited from earlier work.
The nature of series [2]: Lipophilicity by reversed-phase TLC on RP-18 WF254s plates with standardization. The note with it: for φ 0 (intercept of the trend line with abscissa axis): molar fraction for which lipophilicity equals 0.

Molecules are shown by their SMILES.

Take `Nc1ccc(Cl)c(Cl)c1` [3,4-Dichloroaniline, 3,4-dichloroaniline, reference compound]: the LogP value in series [1] is 2.69. Moreover, the “R M0 (lipophilicity extrapolated to 100 % water)” value in series [2] (acetonitrile/water) is 1.7807; in series [2] (dioxane/water) it was 1.9357; in series [2] (isopropanol/water), 2.149; in series [2] (methanol/water), 2.1151. The “S (slope of the trend line RM vs φ)” value in series [2] (acetonitrile/water) was 3.2165; in series [2] (dioxane/water), 3.3499; in series [2] (isopropanol/water), 4.4484; in series [2] (methanol/water), 3.2073.

In the case of `c1ccc(Nc2ccccc2)cc1` [Diphenylamine, diphenylamine, reference compound], the “S (slope of the trend line RM vs φ)” value in series [2] (acetonitrile/water) is listed as 4.1309; in series [2] (dioxane/water) it was 3.8375; in series [2] (isopropanol/water), 4.6873; in series [2] (methanol/water), 2.9469.

Turning to `Cc1cc(=O)oc2cc(O)ccc12` [Compound 8, 7-hydroxy-4-methylcoumarin], the “S (slope of the trend line RM vs φ)” value is recorded as 2.5539 in series [2] (acetonitrile/water), 2.2314 in series [2] (dioxane/water), 2.0405 in series [2] (isopropanol/water) and 2.0525 in series [2] (methanol/water). Further, the “φ 0 (intercept of the trend line with abscissa axis)” value in series [2] (acetonitrile/water) amounted to 0.382; in series [2] (dioxane/water), 0.409; in series [2] (isopropanol/water), 0.372; in series [2] (methanol/water), 0.567.

Turning to `CC(=O)c1cc2c(C)cc(=O)oc2cc1O` [Compound 11, 6-Acetyl-7-hydroxy-4-methylcoumarin], the “S (slope of the trend line RM vs φ)” value in series [2] (acetonitrile/water) was determined as 2.9356; in series [2] (dioxane/water), 2.5162; in series [2] (isopropanol/water) it was 2.8074; in series [2] (methanol/water), 1.8855. In addition, the “φ 0 (intercept of the trend line with abscissa axis)” value is 0.425 in series [2] (acetonitrile/water), 0.409 in series [2] (dioxane/water), 0.362 in series [2] (isopropanol/water) and 0.526 in series [2] (methanol/water).

`O=C(c1ccccc1)c1ccccc1` [Benzophenone, benzophenone, reference compound]: the “S (slope of the trend line RM vs φ)” value in series [2] (acetonitrile/water) is recorded as 4.1335; in series [2] (dioxane/water), 3.6381; in series [2] (isopropanol/water), 4.4575; in series [2] (methanol/water), 3.2945.

With `CC(=O)Oc1ccc2c(C)cc(=O)oc2c1` [Compound 10, 7-Acetoxy-4-methylcoumarin], the “S (slope of the trend line RM vs φ)” value in series [2] (acetonitrile/water) turned out to be 3.506; in series [2] (dioxane/water), 3.3341; in series [2] (isopropanol/water) it was 3.436; in series [2] (methanol/water), 2.3174. The “φ 0 (intercept of the trend line with abscissa axis)” value in series [2] (acetonitrile/water) was 0.526; in series [2] (dioxane/water) it was 0.518; in series [2] (isopropanol/water), 0.448; in series [2] (methanol/water), 0.680.

Consider `CC(=O)Nc1ccc(Cl)c(Cl)c1` [3,4-Dichloroacetanilide, reference compound], for which the LogP value in series [1] is 2.96. Also, the “S (slope of the trend line RM vs φ)” value in series [2] (acetonitrile/water) worked out at 3.5551; in series [2] (dioxane/water) it was 3.0847; in series [2] (isopropanol/water), 4.1116; in series [2] (methanol/water), 2.4827.

For the molecule `c1ccc(Cc2ccccc2)cc1` [Diphenylmethane, diphenylmethane, reference compound], the LogP value in series [1] is given as 4.14. Further, the “S (slope of the trend line RM vs φ)” value in series [2] (acetonitrile/water) was determined as 5.2957; in series [2] (dioxane/water), 5.0853; in series [2] (isopropanol/water), 6.2485; in series [2] (methanol/water) it was 4.067.

Consider `O=C1Nc2ccccc2C1=O` [Isatine, isatine, reference compound], for which the LogP value in series [1] is recorded as 0.83. Besides, the “R M0 (lipophilicity extrapolated to 100 % water)” value in series [2] (acetonitrile/water) was 0.7435; in series [2] (dioxane/water), 0.3418; in series [2] (isopropanol/water), 0.5885; in series [2] (methanol/water), 0.6009. Besides, the “S (slope of the trend line RM vs φ)” value in series [2] (acetonitrile/water) is 2.0278; in series [2] (dioxane/water) it was 1.2132; in series [2] (isopropanol/water), 2.0065; in series [2] (methanol/water) it was 1.4786.

Regarding `O=[N+]([O-])c1ccccc1O` [2-Nitrophenol, 2-nitrophenol, reference compound], the “R M0 (lipophilicity extrapolated to 100 % water)” value in series [2] (acetonitrile/water) was 1.1246; in series [2] (dioxane/water) it was 1.0657; in series [2] (isopropanol/water) it was 1.2375; in series [2] (methanol/water) it was 1.0469. Besides, the “S (slope of the trend line RM vs φ)” value was determined as 2.5429 in series [2] (acetonitrile/water), 2.2497 in series [2] (dioxane/water), 2.9639 in series [2] (isopropanol/water) and 1.9676 in series [2] (methanol/water).

With `CC(=O)Oc1cc(C)cc2oc(=O)cc(C)c12` [Compound 2a, 5-acetoxy-4,7-dimethylcoumarin], the “S (slope of the trend line RM vs φ)” value in series [2] (acetonitrile/water) came to 3.6418; in series [2] (dioxane/water) it was 3.2936; in series [2] (isopropanol/water), 3.8312; in series [2] (methanol/water), 2.5335. Also, the “φ 0 (intercept of the trend line with abscissa axis)” value is 0.481 in series [2] (acetonitrile/water), 0.474 in series [2] (dioxane/water), 0.424 in series [2] (isopropanol/water) and 0.642 in series [2] (methanol/water).

Take `CC(=O)c1c(O)ccc2c(C)cc(=O)oc12` [Compound 9, 8-Acetyl-7-hydroxy-4-methylcoumarin]: the “S (slope of the trend line RM vs φ)” value in series [2] (acetonitrile/water) worked out at 3.0614; in series [2] (dioxane/water), 3.2472; in series [2] (isopropanol/water) it was 2.6277; in series [2] (methanol/water) it was 2.5967. The “φ 0 (intercept of the trend line with abscissa axis)” value in series [2] (acetonitrile/water) was found to be 0.464; in series [2] (dioxane/water), 0.508; in series [2] (isopropanol/water), 0.446; in series [2] (methanol/water) it was 0.697.

Turning to `O=c1ccc2ccc(O)cc2o1` [Compound 7, umbelliferone], the “R M0 (lipophilicity extrapolated to 100 % water)” value is reported as 0.7232 in series [2] (acetonitrile/water), 0.6676 in series [2] (dioxane/water), 0.5162 in series [2] (isopropanol/water) and 0.9623 in series [2] (methanol/water). Besides, the “S (slope of the trend line RM vs φ)” value was found to be 2.0876 in series [2] (acetonitrile/water), 1.8746 in series [2] (dioxane/water), 1.6695 in series [2] (isopropanol/water) and 1.9022 in series [2] (methanol/water). The “φ 0 (intercept of the trend line with abscissa axis)” value in series [2] (acetonitrile/water) turned out to be 0.346; in series [2] (dioxane/water), 0.356; in series [2] (isopropanol/water), 0.309; in series [2] (methanol/water), 0.506.
